Where “and” joins values, the source holds several entries; their conditions need not be identical. Equal values may be shown once.
Tests used:
[1] = Metabolite profiling by HPLC radiochromatography in plasma, urine and faeces; type: in vivo, human
Experimental: Individual plasma samples collected from all subjects at 0.5, 1, 2.5, 8, 24, 36 and 48 h post-dose were analysed for metabolite profiling. A pooled sample (equal volume from 0.5,1,2.5,8 and 24 h) from subject 1 was also used for metabolite profiling. Three volumes of acetonitrile were added to each sample, followed by mixing and centrifu-gation. The supernatant was removed and the pellet was washed twice with acetonitrile. The combined superna-tants were evaporated to dryness under a stream of nitrogen. The residues were re-suspended in acetonitrile: 1% formic acid in water (1:1), assayed for extraction recovery and analysed for metabolite profiling.
For each subject, urine samples were pooled using an equal percentage by volume of the 0-4, 4-8, 8-12 and 12-24-h samples. The 24-48-h urine sample from each subject and a pool of the 0-168-h urine samples from subject 1 were also analysed for metabolite profiling. Samples were mixed and centrifuged prior to the supernatants being transferred to fresh tubes for metabolite profiling analysis.
Faecal homogenates for metabolite profiling were pooled using an equal percentage by weight to generate two pools (0-48 h and 48-96 h) for each subject. An additional pool (0-168 h) was prepared using the samples collected from subject 1. An aliquot (approximately 6 g) of each pool was extracted with three volumes of acetonitrile; samples were mixed and centrifuged. The supernatant was removed and the pellets were extracted twice with an additional 12 mL of acetonitrile each time. The combined supernatants were evaporated to dryness under a stream of nitrogen and the residue was re-suspended in a small volume (approximately 400 μL) of acetonitrile: 1% formic acid in water (1:1). Samples were assayed for extraction recovery prior to metabolite profiling.
HPLC analysis for metabolite profiling was performed using a Shimadzu LC-10ADVP (Shimadzu Corp., Columbia, MD) or a Waters 2695 Alliance Separation Module (Waters Corp., Milford, MA) with the autosampler set to an ambient temperature of approximately 22°C. ASPD-10A VPUV-Vis Detector or a Waters 996 Photodiode array detector set to 254 nm was used to detect UV absorbance. [^14C]Apremilast and metabolites were separated using a Phenomenex Luna C 18(2) column (150 × 4.6 mm, 3 μm; Phenomenex, Torrance, CA) equipped with a RP-18 guard column (15×3.2 mm, 7 μm) or using an ACE 3 C18 column (150 × 4.6 mm, 3 μm; Advanced Chromatography Technologies, Aberdeen, Scotland) equipped with an ACE 3 guard column (10×3mm, 3 μm). The mobile phases used were 0.4% formic acid in water; pH 3.2 with ammonium hydroxide (mobile phase A) and acetonitrile (mobile phase B). The column temperature was 30°C and the flow rate was 0.7mL/min. The linear gradient was delivered as follows: 0-5 min to 100% A; 5-20 min to 85% A; 20-30 min hold at 85% A; 30-50 min to 65% A; 50-60 min to 60% A; 60-70 min to 50% A; 70-75 min to 0% A; hold at 0% A until 80 min; return to initial conditions over 2 min.
Radioactivity profiles for excreta were determined by radiochromatography using liquid chromatography-accurate radioisotope counting stop-flow system (LC-ARC; AIM Research Company, Wilmington, DE). Radioactivity was detected using a β-Ram Radioflow detector (IN/US Systems, Brandon, FL) equipped with a 1300-μL liquid cell. Liquid scintillation cocktail and column eluate were mixed at a ratio of 2.5:1. Radioactive peaks were quantified using LC-ARC data handling software. Plasma radioactivity profiles were determined by collecting the column eluate into 96-well Deepwell LumaPlates at a rate of 0.25 min/fraction. The plates were dried and the radioactivity in each well determined using a PerkinElmer TopCount NXT Microplate Scintillation Counter. HPLC radiochromatograms were reconstructed using LC-ARC data handling software.
Pharmacokinetic data were generated by non-compartmental analysis of plasma or whole blood versus time profiles using WinNonlin (version 4.1, Enterprise Edition). […]

[2] = system: TNF-α production by human peripheral blood mononuclear cells; assay: TNF-α production assay in LPS-stimulated PBMC; type: cell-based; details: LPS 1 ng/mL, 16-18 h, ELISA
Experimental: PDE4 enzyme was isolated from U937 human monocytic cells and used for testing inhibition in a cAMP hydrolysis assay as previously described ([Schafer et al. 2010]). For the TNF-α production assay, human peripheral blood mono-nuclear cells (PBMC) were isolated from buffy coat of normal donor blood units (Blood Center of New Jersey, East Orange, NJ) by density centrifugation over Ficoll Hypaque (Pharmacia, Piscataway, NJ). Cells were cultured in RPMI 1640 (Life Technologies, Grand Island, NY) supplemented with 5% AB^+ human serum (Gemini Bio-products, Woodland, CA), 2-mM L-glutamine, 100-U/mL penicillin and 100-μg/mL streptomycin (Life Technologies). PBMC (2×10^5 cells) were plated in 96-well flat-bottom Costar tissue culture plates (Corning, NY) in duplicate. Cells were stimulated with lipopolysaccharides (LPS) (from Salmonella abortus equi; Sigma cat.no. L-1887, St.Louis, MO) at a final concentration of 1 ng/mL in the absence or presence of compounds. The compounds were dissolved in DMSO (Sigma) and subsequent dilutions were done in culture medium immediately before use. The compounds were added to cells 1 h before LPS stimulation. The cells were incubated for 16-18 h at 37°C in 5% CO2, and super-natants were then collected, diluted with culture medium and assayed for TNF-α levels by enzyme-linked immunosorbent assay (ThermoFisher, Rockford, IL). Fifty percent inhibitory concentrations (IC50) for the PDE4 enzymatic and TNF-α assay were calculated by non-linear regression analysis using Prism 5.1 (GraphPad Software). Regression curves were sigmoidal dose response curves with maximum and minimum constrained to 100% and 0%, respectively.

[3] = radiochromatography, single oral 20-mg dose, mean ± SD

CCOc1cc([C@@H](CS(C)(=O)=O)N2C(=O)c3cccc(NC(C)=O)c3C2=O)ccc1OC [Apremilast, (+)-N-[2-[(lS)-1-(3-ethoxy-4-methoxyphenyl)-2-(methylsulfonyl)ethyl]-1,3-dioxo-2,3-dihydro-lH-isoindol-4-yl]acetamide]
Plasma (% AUC relative to TRA); share of circulating radioactivity ([1]; AUC0-t (unchanged drug or metabolite)/AUC0-48 (TRA) * 100%): 45% and 44.8% | Plasma exposure (AUC) relative to total radioactivity ([1]; based on radiochromatography): approximately 40% | % of dose excreted, faeces ([1]; faeces collected up to 96-h post-dose): 4 % of dose and 4.1 % of dose | half-life ([1]; human, plasma, radiochromatography, single oral 20-mg dose, mean ± SD, read-out: Plasma t½ (converted)): 7.1 ± 2.7 h | Tmax ([1]; male, human, plasma, radiochromatography, single oral 20-mg dose, median and range): 1.8 h | Plasma Cmax ([1]; plasma radioactivity concentrations and radiochromatography, single oral 20-mg dose, mean ± SD): 321±134 ngEq/mL | Plasma AUC0-t [1, 3]: 2455±690 ngEq*h/mL | Plasma AUC0-∞ [1, 3]: 2636±705 ngEq*h/mL | % of dose excreted, urine ([1]; urine collected up to 48-h post-dose): 2.8 % of dose | IC50 [2]: 77 nM

From article PMC3231940, “Disposition, metabolism and mass balance of [^14C]apremilast following oral administration” (Xenobiotica; the Fate of Foreign Compounds in Biological …, 2011)
